The nature of the series: solubility determination in organic solvents. Format: physicochemical. An excerpt: It is confirmed that Ir(dbq-tBuP)2(acac) can be dissolved in each of 2-ethoxyethanol, 1,4-dioxane, chloroform, and toluene.

Some results are limits rather than exact numbers.

As a reminder, the solubility is the concentration that dissolves in the medium under given conditions. A high value points to much dissolved substance. As to `CC(=O)C=C(C)[O][Ir]([c]1cc(C(C)(C)C)ccc1-c1cnc2c3ccccc3c3ccccc3c2n1)[c]1cc(C(C)(C)C)ccc1-c1cnc2c3ccccc3c3ccccc3c2n1` [Ir(dbq-tBuP)2(acac), (acetylacetonato)bis{2-(4-tert-butylphenyl)-dibenzo[f,h]quinoxalinato}iridium(III)], the solubility reads like this: (in chloroform) no less than 1200 µg/mL; (in toluene) no less than 1200 µg/mL. In addition, the Solubility x runs as follows: (solvent: Chloroform) 1.2 ≦ x g/L; (solvent: Ethanol) “x < 0.6 g/L”; (solvent: Isopropyl alcohol) “x < 0.6 g/L”; (solvent: Toluene) 1.2 ≦ x g/L.

Source of the values: patent publication US8877351B2, “Organometallic complex, and lighting apparatus, and electronic device using the organometallic complex” (Semiconductor Energy Laboratory Co., Ltd., priority 2008, dated 2014).
